This note sets out measurements from patent publication US20220202783A1, “Use Of ADAM9 Inhibitor As Immunomodulator” (China Medical University, priority 2019, published 2022).

Data set [1] is described as follows: cytotoxicity assay in 293 cells. The format is cell-based. On the set-up: key to effect of inhibiting tumor cell growth: “+” represents that the compound has the effect of inhibiting tumor cell growth. The note with it: 293.
Data set [2] has as its system kidney cancer cells (293). As to the kind of experiment: cytotoxicity assay in 293 cells. The format is cell-based. Set-up: key to effect of inhibiting tumor cell growth: “+” represents that the compound has the effect of inhibiting tumor cell growth. The note with it: Homo sapiens, HEK293.
The test system of data set [3] is lung cancer cells (Bm7brmx2). The data set can be described thus: cytotoxicity assay in Bm7brmx2 cells. It counts as cell-based. On the set-up: key to effect of inhibiting tumor cell growth: “+” represents that the compound has the effect of inhibiting tumor cell growth. The essentials:
(§1)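 Compounds of Formula (I) were tested in a cytotoxicity assay, and IC50 values were determined from the resulting cell-killing data.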

Data set [4] deals with lung cancer cells (Bm7brmx2-2nd). The data set can be described thus: cytotoxicity assay in Bm7brmx2-2nd cells. The format is cell-based. Set-up: key to effect of inhibiting tumor cell growth: “+” represents that the compound has the effect of inhibiting tumor cell growth. The essentials: as §1
For data set [5], the system named is Bm7 lung cancer cells. The data set can be described thus: cytotoxicity assay, FIG. 1B and Table 2 summary. The format is cell-based. As for the experimental part: (§2) Please refer to FIG. 1A, FIG. 1B and Table 2, which show the analysis results of the compound of Formula (I) inhibiting ADAM9 activity. In FIG. 1A, Bm7 lung cancer cells were treated with the derivatives of the compound 6X-0310, and then cultured under anchorage-free culture condition. The expressions of ADAM9 and CDCP1 in Bm7 lung cancer cells were detected by Western blot, in which EF1α is an internal control, and mock represents Bm7 lung cancer cells without treatment. […] In the experiment, the compounds of Formula (I) of Example 1 to Example 32 were further performed cytotoxicity assay to measure the IC50 value of the compounds of Formula (I) of the present disclosure in lung cancer cell lines.

In data set [6] the test system is CDCP1 in Bm7 lung cancer cells. As to the kind of experiment: Western blot of ADAM9 and CDCP1 expression in Bm7 cells. It counts as cell-based. The conditions noted are these: anchorage-free culture. How it is done: as §2
Background: A western blot detects proteins with antibodies after separation by electrophoresis.

For the next data set, the target named is ADAM17 (Homo sapiens, UniProt P78536). The data set can be described thus: inhibition of ADAM17 activity. The format is biochemical. The conditions noted are these: different concentrations.
Chain of ADAM17 (P78536 215-824, species assumed): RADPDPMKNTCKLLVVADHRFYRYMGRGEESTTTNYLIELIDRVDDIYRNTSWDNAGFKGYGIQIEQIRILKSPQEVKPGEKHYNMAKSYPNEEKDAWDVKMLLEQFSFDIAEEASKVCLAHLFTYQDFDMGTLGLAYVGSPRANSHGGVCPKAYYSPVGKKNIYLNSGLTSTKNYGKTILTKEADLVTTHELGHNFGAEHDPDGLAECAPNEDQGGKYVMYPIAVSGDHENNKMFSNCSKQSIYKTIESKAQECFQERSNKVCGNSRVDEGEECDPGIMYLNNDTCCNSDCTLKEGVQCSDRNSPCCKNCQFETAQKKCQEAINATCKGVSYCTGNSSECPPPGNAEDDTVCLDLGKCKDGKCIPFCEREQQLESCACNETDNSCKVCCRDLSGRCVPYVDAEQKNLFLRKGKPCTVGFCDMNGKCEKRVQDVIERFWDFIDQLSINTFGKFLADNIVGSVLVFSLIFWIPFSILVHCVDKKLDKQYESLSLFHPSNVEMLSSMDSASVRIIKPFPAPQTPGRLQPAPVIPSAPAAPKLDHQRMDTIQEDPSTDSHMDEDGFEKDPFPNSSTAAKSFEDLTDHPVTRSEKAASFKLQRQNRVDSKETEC
The next data set has as its system Su86-86-GFP-Luc. The data set can be described thus: cytotoxicity on pancreatic cancer cells, Su86-86-GFP-Luc. It counts as cell-based. The conditions noted are these: Pancreatic cancer cell. As for the experimental part:
(§3) In addition, the IC50 values (unit is μM) of the compound SW1 and the compound SW2 on pancreatic cancer cells were measured in the experiment.

The subject of data set [7] is Bm7 lung cancer cells. The data set can be described thus: tumor sphere formation. It counts as cell-based. The conditions noted are these: 25 μM, 12 hours. As for the experimental part: In the experiment, the Bm7 lung cancer cells were treated with 25 μM of the compound SW1 or the compound SW2 for 12 hours, and the number of tumor spheres formed was determined. Please refer to FIG. 2H, where mock represents Bm7 lung cancer cells without treatment.

A further data set concerns TC1-WT lung cancer cells. The data set can be described thus: subcutaneous lung tumor mouse model. The format is in vivo, C57BL/6 mice. The conditions noted are these: 10 mg/kg subcutaneous injection once a day, Day 15 to Day 24, vs DMSO control. As for the experimental part: In order to further evaluate whether the treatment of ADAM9 inhibitors will give the same results as the ADAM9 gene knockout, TC1-WT lung cancer cells were injected subcutaneously into C57BL/6 mice with normal immunity to establish a subcutaneous lung tumor mouse model, and the ADAM9 inhibitor (the compound SW1, 10 mg/kg) was treated by subcutaneous injection. From Day 15 to Day 24, the compound SW1 was injected once a day for […]. The tumor volume was observed on Day 12, Day 20 and Day 27, respectively. […] The control group was injected with DMSO as a control for the treatment of the ADAM9 inhibitor.

The test system of data set [8] is 4T1-luc breast cancer cells. The data set can be described thus: syngeneic orthotopic breast tumor animal model, immune cell infiltration. It counts as in vivo, BALB/c mice. The conditions noted are these: 10 mg/kg subcutaneous. The source says:
Please further refer to FIG. 7B, which is a flow chart of the ADAM9 inhibitor used in the treatment of a syngeneic orthotopic breast tumor animal model. In the experiment, 4T1-luc breast cancer cells (5×10^4) were transplanted into the breast fat pads of BALB/c mice to establish the syngeneic orthotopic breast tumor animal model. The IVIS imaging system is used for detection, and the tumor size is represented by the luminous flux of the IVIS image. After tumor images were detected on Day 15, the ADAM9 inhibitor (the compound SW1, 10 mg/kg) was pretreated by subcutaneous injection on Day 16, Day 18, and Day 20. After the tumor was surgically removed on Day 21, the ADAM9 inhibitor (the compound SW1, 10 mg/kg) was continuously treated on Day 23, Day 25, Day 27, Day 29 and Day 31. The surgically resected syngeneic orthotopic breast tumor animal model tumors were stained by immunohistochemistry. In the experiment, a control group was injected with DMSO as a control for the treatment of the ADAM9 inhibitor. Please further refer to FIGS. 8A and 8B, which show the analysis results of the effect of the ADAM9 inhibitor on immune cell infiltration.

Data set [9] deals with TC1 subcutaneous lung tumor. As to the kind of experiment: co-treatment of ADAM9 inhibitor and checkpoint inhibitor, CD8+ T cells to TReg ratio in tumors. The format is in vivo, mice. The note with it: co-treated with anti-PDL1 antibody; vs vehicle, SW1 alone or anti-PDL1 antibody alone. As for the experimental part: To further analyze whether the ADAM9 inhibitor and the checkpoint inhibitor have a synergistic effect, in the experiment, TC1 subcutaneous lung tumor mice were treated alone with the ADAM9 inhibitor (the compound SW1), the checkpoint inhibitor (anti-PDL1 antibody) or co-treated with the ADAM9 inhibitor (the compound SW1) and the checkpoint inhibitor (anti-PDL1 antibody), and the ratio of CD8^+ T cells and regulatory T cells (TReg) in tumors of TC1 subcutaneous lung tumor mice was analyzed. The experiment also included a control group treated with vehicle (DMSO).

Data set [10] concerns human colon cancer cells SW620. As to the kind of experiment: cytokine RNA expression by RT-qPCR, SW620. The format is cell-based. The conditions noted are these: 12.5 μM, 24 hours. As for the experimental part: (§4) We further analyzed whether the treatment of the ADAM9 inhibitor can stimulate tumor cells to secrete cytokines to activate the anti-tumor immunity of the ADAM9 inhibitor. In the experiment, human colon cancer cells SW620 and human pancreatic cancer cells PANC-1 were treated with 12.5 μM of the compound SW1, and human esophageal cancer cells C[…] were treated with 5 μM of the compound SW1. After 24 hours, the cells were collected and the RNA expression levels of CXCL10, CXCL11, CXC3CL1 and IFNB were detected by RT-qPCR. CXCL10, CXCL11 and […] are cytokines that promote the immune response of CD8^+ T cells, and IFNB is a cytokine with anti-cancer effects. Please refer to FIGS. 10A, 10B and 10C, which show the analysis results of the ADAM9 inhibitor stimulated tumor cells to secrete cytokines.

In data set [11] the test system is human pancreatic cancer cells PANC-1. The data set can be described thus: cytokine RNA expression by RT-qPCR, PANC-1. It counts as cell-based. The conditions noted are these: 12.5 μM, 24 hours. How it is done: as §4
(In general: In qPCR the cycle at which signal appears reflects the starting amount.)

Data set [12] deals with human esophageal cancer cells CE146T. The data set can be described thus: cytokine RNA expression by RT-qPCR, CE146T. It counts as cell-based. The note with it: 5 μM, 24 hours. How it is done:
as §4

The subject of the next data set is MiaPaCa. As to the kind of experiment: cytotoxicity on pancreatic cancer cells, MiaPaCa. The note with it: Homo sapiens, MIA PaCa-2. It counts as cell-based. As for the experimental part: as §3

The IC50 is the midpoint of a concentration-inhibition curve. Regarding `O=C1c2ccccc2C(=O)N1CCc1csc(Nc2nc(CCN3C(=O)c4ccccc4C3=O)cs2)n1` [SW1], the “effect of inhibiting tumor cell growth” value in [1], in data set [3] and in data set [4] was “+” in each case. For the same compound, the IC50 in [2] came out at 81.3 µM; in data set [3], 71.6 µM; in data set [4], 43.5 µM; in the data set with Su86-86-GFP-Luc, 59.2 µM. Also, in the data set with Bm7 lung cancer cells [5], the “tumor cell cytotoxicity compared with the core structure compound 6X-0310” value is “stronger tumor cell cytotoxicity”. Also, the “expression of CDCP1” value in data set [6] is recorded as “reduce the expression of CDCP1”. The “inhibition of ADAM17 activity” value against ADAM17 is “no inhibitory effects”. Also, the “number of tumor spheres formed” value in the data set with Bm7 lung cancer cells [7] is “greatly reduce the number of tumor spheres”. The “tumor growth (tumor volume)” value in the data set on TC1-WT lung cancer cells is recorded as “reduces tumor growth”. Further, the “number of infiltrating neutrophils” value in data set [8] (4T1 primary breast tumors and lung metastatic breast tumors) was “greatly reduced”. For the same compound, in data set [8] (primary 4T1 breast tumors and lung metastatic breast tumors), the “number of infiltrating T cells” value is given as “increased”. Also, the “ratio of CD8+ T cells to regulatory T cells (TReg) in tumors” value in data set [9] is “increased significantly”. Moreover, the “RNA expression levels of CXCL10, CXCL11, CXC3CL1 and IFNB” value is “increase the expressions of CXCL10, CXCL11, CXC3CL1 and IFNB” in data set [10]; “increase the expressions of CXCL10, CXCL11, CXC3CL1 and IFNB” in [11]; “increase the expressions of CXCL10, CXCL11, CXC3CL1 and IFNB” in data set [12].
Take `O=C(Nc1nc(CCN2C(=O)c3ccccc3C2=O)cs1)c1cc2ccccc2s1` [SW2]: the “effect of inhibiting tumor cell growth” value in data set [1], in data set [3] and in data set [4] was “+” each time. For the same compound, the IC50 in data set [2] amounted to 15 µM; in data set [3], 52.7 µM; in [4], 45.1 µM; in the data set with MiaPaCa, 8.5 µM; in the data set on Su86-86-GFP-Luc, 66.8 µM. In addition, the “tumor cell cytotoxicity compared with the core structure compound 6X-0310” value in the data set with Bm7 lung cancer cells [5] was “stronger tumor cell cytotoxicity”. Further, the “expression of CDCP1” value in data set [6] is “reduce the expression of CDCP1”. Besides, on ADAM17, the “inhibition of ADAM17 activity” value is given as “no inhibitory effects”. Moreover, the “number of tumor spheres formed” value with Bm7 lung cancer cells [7] is “greatly reduce the number of tumor spheres”.
